Reference: patent EP0029306A1, “Aminoalkyl compounds, their production and pharmaceutical compositions containing them” (GLAXO GROUP LIMITED, priority 1979, dated 1981)
Read-outs that look alike come from different tables or passages of the source.

Test system: histamine induced gastric acid secretion
Assay: Inhibition of histamine induced gastric acid secretion in the perfused rat stomach preparation
Type: in vivo
Conditions: sodium pentobarbitone anaesthesia

Row | Compound | ED50 | ED50 (read-out: ED50)
1 | 3-Phenylmethyl-5-[[2-[2-[3-(1-piperidinylmethyl)phenoxy] ethoxy]ethyl]amino]-1H-1,2,4-triazole [Example 4] | 0.17 mg/kg | –
2 | Cn1nc(N)nc1NCCCCCOc1cccc(CN2CCCCC2)c1 [1(b), 1-methyl-N^5-[5-[3-(1-piperidinyl-methyl)phenoxy]pentyl]-1H-1,2,4-triazole-3,5-diamine] | – | 0.19 mg/kg
3 | Cn1nc(CO)nc1NCCCCCOc1cccc(CN2CCCCC2)c1 [2(a)] | – | 0.2 mg/kg
4 | CNC(=C[N+](=O)[O-])NCCCCCOc1cccc(CN2CCCCC2)c1 [5(b), N-[5-[3-(1-Piperidinylmethyl)phenoxy]pentyl]-N^1methyl-2-nitro-l,l-ethenediamine] | 0.027 mg/kg | –
5 | CC(=O)Nc1nc(NCCCCCOc2cccc(CN3CCCCC3)c2)n(C)n1 [Example 3] | – | 0.22 mg/kg
